Measurements: US20100048597A1 (Novartis AG, priority 2006, published 2010)

Key:
Assay type in all cases: biochemical
CDK9/cyclinT1 = target: T1, CDK9/cyclinT1 (Homo sapiens, UniProt P50750); assay: CDK9/cyclinT1 kinase assay, IMAP fluorescence polarization
T1 construct: purchased Millipore
Description: (§1) Kinase assays were performed on recombinant purified enzymes using the non-radioactive IMAP fluorescence polarization assay format.
(§2) Compound stocks were prepared and diluted in DMSO and were added to kinase reactions at a 1/100 dilution for a final concentration of 1% DMSO. The components were added together to final concentrations listed in the tables below and incubated for two hours at room temperature.
(§3) The reactions were stopped by addition of stop solution.
CDK9/CDK1/CDK7: final stop concentration is 1× Developer buffer (85% A/15% B), IMAP beads 1/400
(§4) The samples were allowed to incubate for one more hour at room temperature and then the fluorescence polarization was measured. The plate normalized millipolarization (mP) values were plotted against the log of compound concentration for each compound and IC50 values were calculated using the spotfire IC50 calculator and confirmed by visual analysis.

CDK1/cyclinB = target: T2, CDK1/cyclinB (Homo sapiens, UniProt P06493); assay: CDK1/cyclinB kinase assay, IMAP fluorescence polarization; conditions: read-out: CDK1 IC50
T2 construct: purchased Millipore
T2 sequence (P06493 whole entry): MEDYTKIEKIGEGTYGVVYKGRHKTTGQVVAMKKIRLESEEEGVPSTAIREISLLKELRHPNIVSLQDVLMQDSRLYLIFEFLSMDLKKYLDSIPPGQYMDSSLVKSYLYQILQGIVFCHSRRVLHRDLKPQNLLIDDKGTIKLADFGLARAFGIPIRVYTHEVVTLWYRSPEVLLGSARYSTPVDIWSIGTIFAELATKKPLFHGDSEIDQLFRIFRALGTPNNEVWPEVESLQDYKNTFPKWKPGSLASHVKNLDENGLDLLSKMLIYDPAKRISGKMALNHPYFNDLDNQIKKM
T2 sequence (P14635 whole entry partner): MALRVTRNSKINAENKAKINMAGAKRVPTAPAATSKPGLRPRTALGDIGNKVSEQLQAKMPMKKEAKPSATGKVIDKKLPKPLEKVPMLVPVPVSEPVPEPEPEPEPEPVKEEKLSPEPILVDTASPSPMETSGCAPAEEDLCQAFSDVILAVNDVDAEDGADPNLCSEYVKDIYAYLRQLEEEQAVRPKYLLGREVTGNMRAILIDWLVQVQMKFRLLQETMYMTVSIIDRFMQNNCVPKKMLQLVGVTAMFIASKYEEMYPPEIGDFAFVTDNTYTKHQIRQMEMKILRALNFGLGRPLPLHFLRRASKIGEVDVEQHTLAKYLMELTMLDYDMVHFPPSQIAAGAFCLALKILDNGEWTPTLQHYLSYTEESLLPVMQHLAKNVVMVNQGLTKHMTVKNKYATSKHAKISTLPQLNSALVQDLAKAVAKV
Description: as §1, §2, §3
The samples were allowed to incubate for one more hour at room temperature and then the fluorescence polarization was measured.

CDK2/cyclinA = target: T3, CDK2/cyclinA (Homo sapiens, UniProt P24941); assay: CDK2/cyclinA kinase assay, IMAP fluorescence polarization
T3 construct: purchased Millipore
Description: as §1, §2, §3
CDK2: final stop concentration is 1× Developer buffer (100% A), IMAP beads 1/400
as §4

T1 sequence (P50750 whole entry): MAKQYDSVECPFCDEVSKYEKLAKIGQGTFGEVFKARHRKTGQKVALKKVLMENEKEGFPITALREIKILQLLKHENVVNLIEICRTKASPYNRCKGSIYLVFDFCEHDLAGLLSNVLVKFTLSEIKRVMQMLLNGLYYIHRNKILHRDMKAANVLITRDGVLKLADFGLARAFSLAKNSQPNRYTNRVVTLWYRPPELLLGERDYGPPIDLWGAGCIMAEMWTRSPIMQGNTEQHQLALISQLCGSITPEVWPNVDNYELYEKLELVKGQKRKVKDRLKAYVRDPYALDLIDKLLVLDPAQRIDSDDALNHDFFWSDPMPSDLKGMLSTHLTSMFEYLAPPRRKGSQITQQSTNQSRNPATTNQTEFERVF
T1 sequence (O60563 whole entry partner): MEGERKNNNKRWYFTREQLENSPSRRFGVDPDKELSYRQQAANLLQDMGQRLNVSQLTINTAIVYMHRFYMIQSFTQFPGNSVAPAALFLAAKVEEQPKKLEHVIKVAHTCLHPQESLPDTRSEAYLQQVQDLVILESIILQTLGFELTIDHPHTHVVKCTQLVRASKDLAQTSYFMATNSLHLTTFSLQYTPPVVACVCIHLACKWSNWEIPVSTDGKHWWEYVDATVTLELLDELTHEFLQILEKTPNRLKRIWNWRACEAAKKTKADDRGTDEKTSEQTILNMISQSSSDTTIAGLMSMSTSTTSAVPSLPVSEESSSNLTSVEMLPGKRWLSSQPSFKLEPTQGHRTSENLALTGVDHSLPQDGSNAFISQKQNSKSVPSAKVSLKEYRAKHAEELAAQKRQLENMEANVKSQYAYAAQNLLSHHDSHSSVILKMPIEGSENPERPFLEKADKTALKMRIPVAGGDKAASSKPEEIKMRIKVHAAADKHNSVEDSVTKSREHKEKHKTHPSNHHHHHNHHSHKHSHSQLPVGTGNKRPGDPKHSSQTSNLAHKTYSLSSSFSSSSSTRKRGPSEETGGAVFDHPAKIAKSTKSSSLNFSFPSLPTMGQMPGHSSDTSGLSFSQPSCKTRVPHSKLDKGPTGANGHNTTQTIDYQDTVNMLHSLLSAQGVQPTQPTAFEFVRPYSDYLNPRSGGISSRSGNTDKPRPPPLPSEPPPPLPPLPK

IC50 (CDK9/cyclinT1) [µM] | IC50 (CDK1/cyclinB) [µM] | IC50 (CDK2/cyclinA) [µM] | SMILES
< 5 | < 5 | < 5 | COc1ncccc1-c1ccnc(Nc2cccc(C3CCNCC3)c2)n1 [Compound 113, [4-(2-Methoxy-pyridin-3-yl)-pyrimidin-2-yl]-(3-piperidin-4-yl-phenyl)-amine]
< 5 | > 50 | > 50 | COc1ncccc1-c1ccnc(Nc2cccc(-c3ccccc3)c2)n1 [Compound 115, Biphenyl-3-yl-[4-(2-methoxy-pyridin-3-yl)-pyrimidin-2-yl]-amine]
< 5 | 5 to 15 | 5 to 15 | CC(C)(C)C(=O)NCCCNc1ncccc1-c1ccnc(Nc2cccc(Cl)c2)n1 [Compound 70, N-(3-{3-[2-(3-Chloro-phenylamino)-pyrimidin-4-yl]-pyridin-2-ylamino}-propyl)-2,2-dimethyl-propionamide]
< 5 | < 5 | < 5 | CC(=O)NCCCCNc1ncccc1-c1ccnc(Nc2cccc(Cl)c2)n1 [Compound 85, N-(4-{3-[2-(3-Chloro-phenylamino)-pyrimidin-4-yl]-pyridin-2-ylamino}-butyl)-acetamide]
< 5 | < 5 | – | CS(=O)(=O)c1cccc(Nc2nccc(-c3cccnc3Nc3cccc(S(C)(=O)=O)c3)n2)c1 [Compound 51, (3-Methanesulfonyl-phenyl)-{4-[2-(3-methanesulfonyl-phenylamino)-pyridin-3-yl]-pyrimidin-2-yl}-amine]
15 to 50 | > 50 | – | COc1ncccc1-c1ccnc(N)n1 [Compound 86, 4-(2-Methoxy-pyridin-3-yl)-pyrimidin-2-ylamine]
< 5 | < 5 | – | Clc1cccc(Nc2nccc(-c3cccnc3Cl)n2)c1 [Compound 43, (3-Chloro-phenyl)-[4-(2-chloro-pyridin-3-yl)-pyrimidin-2-yl]-amine]
< 5 | 15 to 50 | – | CC(=O)NCCCNc1cc(-c2ccnc(Nc3cccc(Cl)c3)n2)c(C)cn1 [Compound 40, N-(3-{4-[2-(3-Chloro-phenylamino)-pyrimidin-4-yl]-5-methyl-pyridin-2-ylamino}-propyl)-acetamide]
< 5 | < 5 | – | Cc1cnc(NCCCN)cc1-c1ccnc(Nc2cccc(Cl)c2)n1 [Compound 39, N-{4-[2-(3-Chloro-phenylamino)-pyrimidin-4-yl]-5-methyl-pyridin-2-yl}-propane-1,3-diamine]
5 to 15 | 15 to 50 | – | COc1ncccc1-c1ccnc(NC2CCCCC2)n1 [Compound 88, Cyclohexyl-[4-(2-methoxy-pyridin-3-yl)-pyrimidin-2-yl]-amine]
5 to 15 | > 50 | – | COc1ccc(-c2ccnc(Nc3cccc(Cl)c3)n2)c(OC)n1 [Compound 118, (3-Chloro-phenyl)-[4-(2,6-dimethoxy-pyridin-3-yl)-pyrimidin-2-yl]-amine]
15 to 50 | 15 to 50 | – | CNc1nccc(-c2cccnc2OC)n1 [Compound 87, [4-(2-Methoxy-pyridin-3-yl)-pyrimidin-2-yl]-methyl-amine]
< 5 | < 5 | – | Cc1cc(-c2ccnc(Nc3cccc(Cl)c3)n2)cc(NCCCN)n1 [Compound 41, N-{4-[2-(3-Chloro-phenylamino)-pyrimidin-4-yl]-6-methyl-pyridin-2-yl}-propane-1,3-diamine]

The next lines start with the molecule.

SMILES | IC50 (CDK9/cyclinT1) [µM] | IC50 (CDK1/cyclinB) [µM] | IC50 (CDK2/cyclinA) [µM]
Cc1c(-c2ccnc(Nc3cccc(Cl)c3)n2)ccnc1NCCC(=O)O [Compound 20, 3-{4-[2-(3-Chloro-phenylamino)-pyrimidin-4-yl]-3-methyl-pyridin-2-ylamino}-propionic acid] | < 5 | 5 to 15 | –
COCCCNc1nccc(-c2ccnc(Nc3cccc(Cl)c3)n2)c1C [Compound 18, (3-Chloro-phenyl)-{4-[2-(3-methoxy-propylamino)-3-methyl-pyridin-4-yl]-pyrimidin-2-yl}-amine] | < 5 | < 5 | < 5
CC(=O)N(C)CCCN(C)c1nccc(-c2ccnc(Nc3cccc(Cl)c3)n2)c1C [Compound 10, N-[3-({4-[2-(3-Chloro-phenylamino)-pyrimidin-4-yl]-3-methyl-pyridin-2-yl}-methyl-amino)-propyl]-N-methyl-acetamide] | < 5 | 5 to 15 | –
Cc1c(-c2ccnc(N(C)c3cccc(Cl)c3)n2)ccnc1NCCCN [Compound 8, N-(4-{2-[(3-Chloro-phenyl)-methyl-amino]-pyrimidin-4-yl}-3-methyl-pyridin-2-yl)-propane-1,3-diamine] | 5 to 15 | 15 to 50 | –
CC(=O)NCCCNc1nccc(-c2ccnc(Nc3cccc(CNC(C)=O)c3)n2)c1C [Compound 15, N-[3-(4-{2-[3-(Acetylamino-methyl)-phenylamino]-pyrimidin-4-yl}-3-methyl-pyridin-2-ylamino)-propyl]-acetamide] | < 5 | > 50 | –
Cc1c(-c2ccnc(Nc3cccc(Cl)c3)n2)ccnc1NCCCN [Compound 4, N-{4-[2-(3-Chloro-phenylamino)-pyrimidin-4-yl]-3-methyl-pyridin-2-yl}-propane-1,3-diamine] | < 5 | < 5 | –
Cc1c(-c2ccnc(Nc3cccc(Cl)c3)n2)ccnc1NCCCNc1ccc(CN)cc1 [Compound 27, N-(4-Aminomethyl-phenyl)-N′-{4-[2-(3-chloro-phenylamino)-pyrimidin-4-yl]-3-methyl-pyridin-2-yl}-propane-1,3-diamine] | < 5 | 5 to 15 | –
CC(=O)NCCCNc1nccc(-c2ccnc(N(C)c3cccc(Cl)c3)n2)c1C [Compound 13, N-[3-(4-{2-[(3-Chloro-phenyl)-methyl-amino]-pyrimidin-4-yl}-3-methyl-pyridin-2-ylamino)-propyl]-acetamide] | > 50 | > 50 | –
CNCCCN(C)c1nccc(-c2ccnc(Nc3cccc(Cl)c3)n2)c1C [Compound 9, N-{4-[2-(3-Chloro-phenylamino)-pyrimidin-4-yl]-3-methyl-pyridin-2-yl}-N,N′-dimethyl-propane-1,3-diamine] | < 5 | < 5 | –
CC(=O)NCCCNc1cc2c(cn1)CCc1cnc(Nc3cccc(Cl)c3)nc1-2 [Compound 36, N-{3-[3-(3-Chloro-phenylamino)-9,10-dihydro-2,4,7-triaza-phenanthren-6-ylamino]-propyl}-acetamide] | < 5 | < 5 | –
Cc1cnc(Nc2cccc(Cl)c2)nc1-c1ccnc(NCCCN)c1 [Compound 31, N-{4-[2-(3-Chloro-phenylamino)-5-methyl-pyrimidin-4-yl]-pyridin-2-yl}-propane-1,3-diamine] | < 5 | < 5 | –
CCc1c(-c2ccnc(Nc3cccc(Cl)c3)n2)ccnc1NCCCNC(C)=O [Compound 7, N-(3-{4-[2-(3-Chloro-phenylamino)-pyrimidin-4-yl]-3-ethyl-pyridin-2-ylamino}-propyl)-acetamide] | < 5 | < 5 | –
CNCCCN(C)c1nccc(-c2ccnc(N(C)c3cccc(Cl)c3)n2)c1C [Compound 11, N-(4-{2-[(3-Chloro-phenyl)-methyl-amino]-pyrimidin-4-yl}-3-methyl-pyridin-2-yl)-N,N′-dimethyl-propane-1,3-diamine] | > 50 | 15 to 50 | –
CCc1c(-c2ccnc(Nc3cccc(Cl)c3)n2)ccnc1NCCCN [Compound 5, N-{4-[2-(3-Chloro-phenylamino)-pyrimidin-4-yl]-3-ethyl-pyridin-2-yl}-propane-1,3-diamine] | < 5 | < 5 | –
CC(=O)NCCCNc1cc(-c2cc(C)nc(Nc3cccc(Cl)c3)n2)ccn1 [Compound 34, N-(3-{4-[2-(3-Chloro-phenylamino)-6-methyl-pyrimidin-4-yl]-pyridin-2-ylamino}-propyl)-acetamide] | < 5 | < 5 | –
Cc1cc(-c2ccnc(NCCCN)c2)nc(Nc2cccc(Cl)c2)n1 [Compound 33, N-{4-[2-(3-Chloro-phenylamino)-6-methyl-pyrimidin-4-yl]-pyridin-2-yl}-propane-1,3-diamine] | 15 to 50 | > 50 | –
CC(=O)NCc1ccc(NCCCNc2nccc(-c3ccnc(Nc4cccc(Cl)c4)n3)c2C)cc1 [Compound 28, N-[4-(3-{4-[2-(3-Chloro-phenylamino)-pyrimidin-4-yl]-3-methyl-pyridin-2-ylamino}-propylamino)-benzyl]-acetamide] | < 5 | 15 to 50 | –
NCCCNc1cc2c(cn1)CCc1cnc(Nc3cccc(Cl)c3)nc1-2 [Compound 35, N-(3-Amino-propyl)-N-(3-chloro-phenyl)-9,10-dihydro-2,4,7-triaza-phenanthrene-3,6-diamine] | < 5 | < 5 | –
CC(=O)NCCCNc1nccc2c1CCc1cnc(Nc3cccc(Cl)c3)nc1-2 [Compound 38, N-{3-[3-(3-Chloro-phenylamino)-9,10-dihydro-2,4,7-triaza-phenanthren-8-ylamino]-propyl}-acetamide] | < 5 | 5 to 15 | –
CC(=O)OCCCNc1nccc(-c2ccnc(Nc3cccc(Cl)c3)n2)c1C [Compound 19, Acetic acid 3-{4-[2-(3-chloro-phenylamino)-pyrimidin-4-yl]-3-methyl-pyridin-2-ylamino}-propyl ester] | < 5 | 5 to 15 | –
Cc1c(-c2ccnc(Nc3cccc(Cl)c3)n2)ccnc1NCCCO [Compound 17, 3-{4-[2-(3-Chloro-phenylamino)-pyrimidin-4-yl]-3-methyl-pyridin-2-ylamino}-propan-1-ol] | < 5 | < 5 | –
